# Results taken from ChEMBL document CHEMBL1681761, “Synthesis, biological evaluation and molecular docking studies of stellatin derivatives as cyclooxygenase (COX-1, COX-2) inhibitors and anti-inflammatory agents” (Bioorg Med Chem Lett, 2011).
# How the values were obtained:
# [1] = molecular target: T1, Prostaglandin G/H synthase 1 (Homo sapiens, UniProt P23219); experiment: Inhibition of COX1
# Mus musculus [2] = experiment: Antiinflammatory activity against TPA-induced mouse edema model assessed as reduction in ear edema at 0.5 mg/ear; format: functional
# [3] = molecular target: T2, Prostaglandin G/H synthase 2 (Homo sapiens) (UniProt P35354); settings: at 30 µM
# T2 sequence (whole entry): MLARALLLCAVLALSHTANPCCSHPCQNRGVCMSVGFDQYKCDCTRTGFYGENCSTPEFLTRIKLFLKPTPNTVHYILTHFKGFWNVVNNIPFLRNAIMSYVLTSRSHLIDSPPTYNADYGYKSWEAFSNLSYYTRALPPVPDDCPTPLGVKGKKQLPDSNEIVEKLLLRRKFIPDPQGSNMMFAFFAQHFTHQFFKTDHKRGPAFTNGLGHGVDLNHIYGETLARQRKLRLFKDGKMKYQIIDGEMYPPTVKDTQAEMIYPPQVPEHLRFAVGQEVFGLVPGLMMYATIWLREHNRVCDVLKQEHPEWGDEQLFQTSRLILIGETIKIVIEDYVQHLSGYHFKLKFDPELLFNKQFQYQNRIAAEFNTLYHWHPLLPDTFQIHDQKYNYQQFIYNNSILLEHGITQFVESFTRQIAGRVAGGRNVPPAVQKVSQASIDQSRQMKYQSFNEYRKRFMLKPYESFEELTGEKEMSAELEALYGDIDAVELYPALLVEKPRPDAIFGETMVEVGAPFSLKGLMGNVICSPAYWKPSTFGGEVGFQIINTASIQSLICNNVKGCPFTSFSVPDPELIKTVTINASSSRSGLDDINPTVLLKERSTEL
# Description: Inhibition of COX2 at 30 uM
# Mus musculus [4] = experiment: Antiinflammatory activity against TPA-induced mouse edema model assessed as ear thickness at 0.5 mg/ear (Rbv = 0.270 +/- 0.008 mm); format: functional
# [5] = molecular target: T1, Prostaglandin G/H synthase 1; settings: at 30 µM
# Description: Inhibition of COX1 at 30 uM
# [6] = molecular target: T3, Prostaglandin G/H synthase 2 (Homo sapiens, UniProt P35354)
# T3 sequence (P35354 whole entry): T2 sequence (whole entry)
# T1 sequence (P23219 whole entry): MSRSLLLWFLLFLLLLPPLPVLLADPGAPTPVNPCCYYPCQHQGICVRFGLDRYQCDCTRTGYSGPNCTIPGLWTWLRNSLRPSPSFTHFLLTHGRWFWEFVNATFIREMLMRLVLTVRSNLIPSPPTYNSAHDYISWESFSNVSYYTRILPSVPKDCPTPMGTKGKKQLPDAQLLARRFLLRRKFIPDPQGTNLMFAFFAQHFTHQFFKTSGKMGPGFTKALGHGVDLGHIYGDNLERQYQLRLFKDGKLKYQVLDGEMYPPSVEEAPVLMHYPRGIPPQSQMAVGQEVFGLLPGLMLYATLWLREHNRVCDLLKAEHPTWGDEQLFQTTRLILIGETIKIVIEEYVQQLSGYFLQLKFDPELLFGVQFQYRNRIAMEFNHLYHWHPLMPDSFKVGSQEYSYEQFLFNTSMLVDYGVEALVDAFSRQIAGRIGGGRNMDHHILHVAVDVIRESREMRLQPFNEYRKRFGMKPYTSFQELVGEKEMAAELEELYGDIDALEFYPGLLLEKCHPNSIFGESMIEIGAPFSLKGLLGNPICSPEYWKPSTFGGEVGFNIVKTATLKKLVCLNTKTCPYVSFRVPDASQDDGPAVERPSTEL
SMILES,IC50 [1] [µM],inhibition [3] [%],inhibition [5] [%],IC50 [6] [µM],inhibition (INH) (Mus musculus [2]) [%],Activity (Mus musculus [4]) [mm]
COc1c(OC)c(O)c2c(=O)cc(C)oc2c1Br,29.3,67,63.8,25.4,70.37,0.08
Cc1cc(=O)c2c(O)c(O)c(O)cc2o1,14.4,94.1,87.5,8.87,90.74,0.025
C=CCOc1c(OC)cc2oc(C)cc(=O)c2c1O,26,81.5,68.3,18,71.3,0.077
COc1cc2oc(C)cc(=O)c2c(OCc2ccccc2)c1OC,–,48.1,63.4,–,–,–
COc1ccc2c(c1)c(CC(=O)O)c(C)n2C(=O)c1ccc(Cl)cc1 [INDOMETHACIN],–,–,–,–,81.48,0.05
COc1cc(/C=C/C(=O)CC(=O)/C=C/c2ccc(O)c(OC)c2)ccc1O,–,–,59,–,–,–
COc1cc2oc(C)cc(=O)c2c(OC(=O)c2ccccc2)c1OC,–,68.1,45.8,–,–,–
C=CCOc1cc2oc(C)cc(=O)c2c(O)c1OCC=C,21.6,89.5,74.1,13.5,80.24,0.053
COc1c(OC)c(O)c2c(=O)cc(C)oc2c1Cl,27.2,50.3,66.8,43.4,61.11,0.105
CC(C)=CCOc1cc2oc(C)cc(=O)c2c(O)c1OCC=C(C)C,17.2,91.7,82.3,10.3,85.18,0.04
COc1c(OC)c(O)c2c(=O)cc(C)oc2c1I,–,37.7,57.2,–,–,–
COc1cc(O)c2c(=O)cc(C)oc2c1 [EUGENIN],17.8,78.5,85.6,20.1,73.2,0.071
COc1cc2oc(C)cc(=O)c2c(O)c1OC [STELLATIN],22.3,80.2,71.5,19.7,69.44,0.082
COc1cc2oc(C)cc(=O)c2c(O)c1OCC=C(C)C,18.7,83.2,80.7,15.5,77.77,0.06
COc1cc2oc(C)cc(=O)c2c(O)c1O,19.8,85,78.1,15.4,78.4,0.058

# The next lines start with results.
IC50 [1] [µM],inhibition [3] [%],inhibition [5] [%],IC50 [6] [µM],SMILES,inhibition (INH) (Mus musculus [2]) [%],Activity (Mus musculus [4]) [mm]
–,46.2,59,–,COc1cc2oc(C)cc(=O)c2c(OC(C)=O)c1OC,–,–
38.3,73.9,56.2,21.2,C=CCOc1c(OC)c(OC)cc2oc(C)cc(=O)c12,66.66,0.09
–,52.5,28.4,–,CCCCOc1c(OC)c(OC)cc2oc(C)cc(=O)c12,–,–
–,49.8,54.9,–,CCOc1c(OC)c(OC)cc2oc(C)cc(=O)c12,–,–
–,48.4,40.2,–,CCCOc1c(OC)c(OC)cc2oc(C)cc(=O)c12,–,–
22.9,82.5,70.1,17.6,COc1cc2oc(C)cc(=O)c2c(OCC=C(C)C)c1OC,77.16,0.061
–,47.4,70.3,–,COc1cc2oc(C)cc(=O)c2c(OC)c1OC,–,–
